Results from patent publication US20050209278A1, “Piperidinyl- and piperazinyl-sulfonylmethyl hydroxamic acids and their use as protease inhibitors” (priority 2002, published 2005).
Read-outs that look alike come from different tables or passages of the source.

What was measured:
MMP-9 = biological target: T1, MMP-9 (Homo sapiens, UniProt P14780); experiment: In vitro MMP inhibition, Ki determination (fluorogenic substrate II); format: biochemical
T1 construct: made in house; host or cells: MMP-9-transfected HT1080 cells (spent media)
In short: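 HT1080-derived MMP-9, activated with APMA, trypsin or MMP-3, incubated 1 hr at room temperature with inhibitor and 4 μM fluorogenic substrate II (at or below Km) in pH 7.5 Tris/NaCl/CaCl2 buffer; ex 330/em 420 nm. Ki from Morrison-equation regression, without substrate correction.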

MMP-14 = biological target: T2, MMP-14 (Homo sapiens, UniProt P50281); experiment: as above; format: biochemical; settings: read-out: MMP-14 Ki
T2 construct: The catalytic domain enzyme was expressed in E. coli inclusion bodies, solubilized in urea; made in house
In short: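 Apparent Ki was fitted with Morrison's equation from reaction rates at a single low enzyme level. Enzyme was APMA- or trypsin-activated refolded MMP-14 catalytic domain, buffered at pH 7.5 with 10 mM CaCl2.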

T1 sequence (P14780 107-707 limits assumed): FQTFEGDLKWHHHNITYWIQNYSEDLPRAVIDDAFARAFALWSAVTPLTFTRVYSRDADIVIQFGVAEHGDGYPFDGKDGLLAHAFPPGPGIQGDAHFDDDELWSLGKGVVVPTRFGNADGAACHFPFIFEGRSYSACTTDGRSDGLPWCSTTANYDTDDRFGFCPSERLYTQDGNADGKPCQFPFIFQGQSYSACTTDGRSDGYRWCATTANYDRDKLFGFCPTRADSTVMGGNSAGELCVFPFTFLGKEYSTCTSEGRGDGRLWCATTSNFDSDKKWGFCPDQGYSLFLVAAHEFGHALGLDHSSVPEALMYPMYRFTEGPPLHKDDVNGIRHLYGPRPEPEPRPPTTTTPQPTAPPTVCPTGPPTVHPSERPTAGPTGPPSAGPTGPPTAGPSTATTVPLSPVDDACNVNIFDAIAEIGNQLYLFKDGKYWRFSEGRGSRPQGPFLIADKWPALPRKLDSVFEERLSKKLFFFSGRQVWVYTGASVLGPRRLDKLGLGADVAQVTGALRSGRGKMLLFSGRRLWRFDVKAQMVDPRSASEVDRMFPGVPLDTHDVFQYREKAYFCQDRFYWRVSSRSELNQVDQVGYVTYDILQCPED

SMILES | Ki (MMP-9; value not in parenthesis) | Ki (MMP-14; value not in parenthesis) | Ki (MMP-9; value outside parentheses) | Ki (MMP-14; value outside parentheses)
CCCCc1ccc(C2CCN(S(=O)(=O)C3(C(=O)NO)CCN(CCOC)CC3)CC2)s1 [Example 55] | 0.35 nM | 2450 nM |  | 
O=C(NO)C1(S(=O)(=O)N2CCN(c3ccc(COCC(F)(F)C(F)F)cc3)CC2)CCOCC1 [Example 71] | 13 nM |  |  | 
O=C(NO)C1(S(=O)(=O)N2CCN(c3ccc(COCC(F)(F)F)cc3)CC2)CCOCC1 [Example 72] | 2.86 nM | 7570 nM |  | 
O=C(NO)C1(S(=O)(=O)N2CCN(c3ccc(OC4CCC4)c(F)c3)CC2)CCOCC1 [Example 73] | 7.97 nM | 2360 nM |  | 
O=C(NO)C1(S(=O)(=O)N2CCN(c3ccc(OCc4ccccc4)cn3)CC2)CCOCC1 [Example 74] | 4.8 nM | 454 nM |  | 
O=C(NO)C1(S(=O)(=O)N2CCN(c3ccc(-c4ccccc4)cc3)CC2)CCOCC1 [Example 76] | 0.5 nM | 358 nM |  | 
O=C(NO)C1(S(=O)(=O)N2CCN(c3ccc(CCC(F)(F)F)cc3)CC2)CCOCC1 [Example 77] | 0.8 nM | 1180 nM |  | 
CCN1CCC(C(=O)NO)(S(=O)(=O)N2CCN(c3ccc(OCCCC(F)(F)F)cc3)CC2)CC1 [Example 78] | 22.8 nM | > 10000 nM |  | 
CC(C)COc1ccc(N2CCN(S(=O)(=O)C3(C(=O)NO)CCOCC3)CC2)cc1Cl [Example 79] | 41.5 nM | 8820 nM |  | 
O=C(NO)C1(S(=O)(=O)N2CCN(c3ccc(OCCCC(F)(F)F)cc3F)CC2)CCOCC1 [Example 81] | 29.2 nM | 2430 nM |  | 
O=C(NO)C1(S(=O)(=O)N2CCN(c3cccc(C(F)(F)F)c3)CC2)CCOCC1 [Example 82] | 249 nM | 1600 nM |  | 
O=C(NO)C1(S(=O)(=O)N2CCN(c3ccc(OCCCC(F)(F)F)cn3)CC2)CCOCC1 [Example 83] | 4.21 nM | 981 nM |  | 
CCCCOc1ccc(N2CCN(S(=O)(=O)C3(C(=O)NO)CCN(C(C)(C)C)CC3)CC2)c(F)c1 [Example 84] | 17.9 nM | > 10000 nM |  | 
CCCCOc1ccc(N2CCN(S(=O)(=O)C3(C(=O)NO)Cc4ccccc4C3)CC2)nc1 [Example 85] | 1.17 nM | 1510 nM |  | 
COCCN1CCC(C(=O)NO)(S(=O)(=O)N2CCN(c3ccc(OCCCCF)cc3)CC2)CC1 [Example 88] | 2.18 nM | 2760 nM |  | 
O=C(NO)C1(S(=O)(=O)N2CCN(c3ccc(OCCCCF)cc3)CC2)CCOCC1 [Example 89] | 2.23 nM | 2800 nM |  | 
CCCCOc1ccc(N2CCN(S(=O)(=O)C3(C(=O)NO)CCOCC3)CC2)c(F)c1 [Example 90] | 2.15 nM | 4550 nM |  | 
CCCCc1ccc(N2CCN(S(=O)(=O)C3(C(=O)NO)CCOCC3)CC2)c(F)c1 [Example 91] | 0.452 nM | 1740 nM |  | 
CCCCOc1ccc(N2CCN(S(=O)(=O)C3(C(=O)NO)CCN(c4nc5ccccc5s4)CC3)CC2)cc1 [Example 93] | 60.1 nM | 9860 nM |  | 
O=C(NO)C1(S(=O)(=O)N2CCN(c3ccc(C(F)(F)F)cn3)CC2)CCOCC1 [Example 94] | 14.3 nM | 221 nM |  | 
CCCCCc1ccc(N2CCN(S(=O)(=O)C3(C(=O)NO)CCN(c4ncccn4)CC3)CC2)nc1 [Example 95] | 0.99 nM | 597 nM |  | 
CCCCc1ccc(N2CCN(S(=O)(=O)C3(C(=O)NO)CCN(c4cccnc4)CC3)CC2)nc1 [Example 96] | 0.21 nM | 816 nM |  | 
CCCCOc1ccc(N2CCN(S(=O)(=O)C3(C(=O)NO)CCN(C(=O)OCC(C)(C)C)CC3)CC2)cc1 [Example 97] | 21.9 nM | > 10000 nM |  | 
C#CCOC(=O)N1CCC(C(=O)NO)(S(=O)(=O)N2CCN(c3ccc(OCCCC)cc3)CC2)CC1 [Example 98] | 1.24 nM | 1620 nM |  | 
CCCCc1ccc(N2CCN(S(=O)(=O)C3(C(=O)NO)CCN(c4ncccn4)CC3)CC2)nc1 [Example 99] | 0.16 nM | 225 nM |  | 

The remaining lines, values ahead:

Ki (MMP-9; value not in parenthesis) | Ki (MMP-14; value not in parenthesis) | Ki (MMP-9; value outside parentheses) | Ki (MMP-14; value outside parentheses) | SMILES
0.3 nM | 411 nM |  |  | CCCCOc1ccc(N2CCN(S(=O)(=O)C3(C(=O)NO)CCOCC3)CC2)nc1 [Example 100]
73.9 nM | > 10000 nM |  |  | CCCCOc1ccc(N2CCN(S(=O)(=O)C3(C(=O)NO)CCN(c4ccc(Cl)c(Cl)c4)CC3)CC2)cc1 [Example 250]
 |  | 57.4 nM | > 10000 nM | CCCCOc1ccc(N2CCN(S(=O)(=O)C3(C(=O)NO)CCN(c4ccc(Cl)cc4)CC3)CC2)cc1 [Example 251]
 |  | 1.43 nM | 5180 nM | CCCCOc1ccc(N2CCN(S(=O)(=O)C3(C(=O)NO)CCN(Cc4ccco4)CC3)CC2)cc1 [Example 252]
 |  | 1.57 nM | 1930 nM | CCCCOc1ccc(N2CCN(S(=O)(=O)C3(C(=O)NO)CCN(C(N)=O)CC3)CC2)cc1 [Example 253]
 |  | 0.63 nM | 856 nM | CCCCOc1ccc(N2CCN(S(=O)(=O)C3(C(=O)NO)CCN(C(=O)N(C)C)CC3)CC2)cc1 [Example 254]
 |  | 2.54 nM | 5660 nM | CCCCOc1ccc(N2CCN(S(=O)(=O)C3(C(=O)NO)CCN(C(=O)c4ccccc4)CC3)CC2)cc1 [Example 255]
 |  | 37 nM | > 10000 nM | CCCCOc1ccc(N2CCN(S(=O)(=O)C3(C(=O)NO)CCN(c4ccc(C(F)(F)F)cn4)CC3)CC2)cc1 [Example 257]
 |  | 457 nM | 4890 nM | O=C(NO)C1(S(=O)(=O)N2CCN(c3ccc(SC(F)(F)F)cc3)CC2)CCS(=O)(=O)CC1 [Example 258]
 |  | 1.35 nM | 2650 nM | CCCCOc1ccc(N2CCN(S(=O)(=O)C3(C(=O)NO)CCN(C(=O)c4ccncc4)CC3)CC2)cc1 [Example 259]
 |  | 0.946 nM | 2800 nM | CCCCOc1ccc(N2CCN(S(=O)(=O)C3(C(=O)NO)CCN(C(=O)C4CC4)CC3)CC2)cc1 [Example 260]
 |  | 1.53 nM | 48.1 nM | CCc1ccc(N2CCN(S(=O)(=O)C3(C(=O)NO)CCCC3)CC2)nc1 [Example 261]
 |  | 0.634 nM | 34 nM | CCc1ccc(N2CCN(S(=O)(=O)C3(C(=O)NO)CCCCC3)CC2)nc1 [Example 263]
 |  | 20.4 nM | > 10000 nM | CCCCOc1ccc(N2CCN(S(=O)(=O)C3(C(=O)NO)CCN(c4ccccc4)CC3)CC2)cc1 [Example 264]
 |  | 2.14 nM | 3790 nM | CCCCOc1ccc(N2CCN(S(=O)(=O)C3(C(=O)NO)CCN(C(=O)CC(F)(F)F)CC3)CC2)cc1 [Example 265]
 |  | 0.957 nM | 2390 nM | CCCCOc1ccc(N2CCN(S(=O)(=O)C3(C(=O)NO)CCN(C(=O)c4cccnc4)CC3)CC2)cc1 [Example 266]
 |  | 2.54 nM | > 10000 nM | CCCCOc1ccc(N2CCN(S(=O)(=O)C3(C(=O)NO)CCN(C(=O)C(C)(C)C)CC3)CC2)cc1 [Example 267]
 |  | 1.08 nM | 1390 nM | CCCCOc1ccc(N2CCN(S(=O)(=O)C3(C(=O)NO)CCN(C(=O)COC)CC3)CC2)cc1 [Example 268]

Ki (MMP-9; value not in parenthesis) | Ki (MMP-14; value not in parenthesis) | Ki (MMP-9; value outside parentheses) | Ki (MMP-14; value outside parentheses) | SMILES
 |  | 0.953 nM | 1200 nM | CCCCOc1ccc(N2CCN(S(=O)(=O)C3(C(=O)NO)CCN(C=O)CC3)CC2)cc1 [Example 269]
 |  | 0.205 nM | 1110 nM | CCCCc1ccc(N2CCN(S(=O)(=O)C3(C(=O)NO)CCN(CCOC)CC3)CC2)nc1 [Example 270]
 |  | 1.49 nM | 1460 nM | CCCCOc1ccc(N2CCN(S(=O)(=O)C3(C(=O)NO)CCN(C(=O)CO)CC3)CC2)cc1 [Example 271]
 |  | 0.542 nM | 4350 nM | CCCCCc1ccc(N2CCN(S(=O)(=O)C3(C(=O)NO)CCN(C4CC4)CC3)CC2)cc1 [Example 272]
 |  | 1.21 nM | 5090 nM | CCCCOc1ccc(N2CCN(S(=O)(=O)C3(C(=O)NO)CCN(C(=O)C(C)C)CC3)CC2)cc1 [Example 273]
 |  | 1.66 nM | 3030 nM | CCCCOc1ccc(N2CCN(S(=O)(=O)C3(C(=O)NO)CCN(C(=O)CC)CC3)CC2)cc1 [Example 274]
 |  | 0.807 nM | 818 nM | CCCCOc1ccc(N2CCN(S(=O)(=O)C3(C(=O)NO)CCN(c4ccc(C)nn4)CC3)CC2)cc1 [Example 275]
 |  | 9.39 nM | > 10000 nM | CCCCOc1ccc(N2CCN(S(=O)(=O)C3(C(=O)NO)CCNCC3)CC2)cc1 [Example 276]
 |  | 0.95 nM | 3020 nM | CCCCOc1ccc(N2CCN(S(=O)(=O)C3(C(=O)NO)CCN(C(=O)c4ccccn4)CC3)CC2)cc1 [Example 277]
 |  | 2 nM | 5260 nM | CCCCOc1ccc(N2CCN(S(=O)(=O)C3(C(=O)NO)CCN(C(=O)CCCC)CC3)CC2)cc1 [Example 278]
 |  | 3.07 nM | 4270 nM | CC(C)CCOc1ccc(N2CCN(S(=O)(=O)C3(C(=O)NO)CCOCC3)CC2)cc1 [Example 279]
 |  | 3.61 nM | 7310 nM | CCCCOc1ccc(N2CCN(S(=O)(=O)C3(C(=O)NO)CCN(C)CC3)CC2)cc1 [Example 280]
 |  | 2.16 nM | 1630 nM | CCCCOc1ccc(N2CCN(S(=O)(=O)C3(C(=O)NO)CCN(c4ccc(Cl)nn4)CC3)CC2)cc1 [Example 281]
 |  | 0.098 nM | 1480 nM | CCCCOc1ccc(N2CCN(S(=O)(=O)C3(C(=O)NO)CCN(C(C)=O)CC3)CC2)cc1 [Example 282]
 |  | 47.6 nM |  | CCCCOc1ccc(N2CCN(S(=O)(=O)C3(C(=O)NO)CCN(c4ccc(C)cc4)CC3)CC2)cc1F [Example 296]
 |  | 19.5 nM |  | COCCOc1ccc(N2CCN(S(=O)(=O)C3(C(=O)NO)CCN(C4CC4)CC3)CC2)cc1F [Example 297]
 |  | 9.11 nM |  | CCCCOc1ccc(N2CCN(S(=O)(=O)C3(C(=O)NO)CCN(C4CC4)CC3)CC2)cc1 [Example 301]
 |  |  | 1290 nM | CCCCc1ccc(C2CCN(S(=O)(=O)C3(C(=O)NO)CCOCC3)CC2)nc1 [Example 307]
